Experimental data as given in ChEMBL document CHEMBL3885881, “DrugMatrix”.

Species on record: Rattus norvegicus
Assay: DrugMatrix - Regimen: Daily Repeat
Assay type: toxicity, organism-based, Sprague-Dawley
Design: regimen Daily Repeat, gender Male, age 6-8 weeks
Conditions: in vivo, sc, […], route mini-PUMP - SUBCUTANEOUS, dose 0.44 mg/Kg, dose level High, vehicle 100 % SALINE; for ABSOLUTE BASOPHIL / ABSOLUTE EOSINOPHIL / ABSOLUTE LYMPHOCYTE / ABSOLUTE MONOCYTE / ABSOLUTE SEGMENTED NEUTROPHIL / BASOPHIL / EOSINOPHIL / ERYTHROCYTE COUNT / HEMATOCRIT / HEMOGLOBIN / LEUKOCYTE COUNT / LYMPHOCYTE / MEAN CORPUSCULAR HEMOGLOBIN / MEAN CORPUSCULAR HEMOGLOBIN CONCENTRATION / MEAN CORPUSCULAR VOLUME / MONOCYTE / NEUTROPHIL / NUCLEATED RED BLOOD CELLS / PLATELET COUNT: tissue Blood; for ALANINE AMINOTRANSFERASE / ALBUMIN / ALKALINE PHOSPHATASE / ASPARTATE AMINOTRANSFERASE / BLOOD UREA NITROGEN / CARBON DIOXIDE / CHLORIDE / CHOLESTEROL / CREATININE / GLUCOSE / LACTATE DEHYDROGENASE / LIPASE / PHOSPHORUS / POTASSIUM / SODIUM / TOTAL BILIRUBIN / TOTAL PROTEIN / URIC ACID: tissue Plasma

CNC[C@H](O)c1cccc(O)c1 [PHENYLEPHRINE]
ABSOLUTE BASOPHIL (72 h, time 3 day): 0 CELLS/uL
ABSOLUTE EOSINOPHIL (72 h, time 3 day): 55.67 CELLS/uL
ABSOLUTE LYMPHOCYTE (72 h, time 3 day): 14419.33 CELLS/uL
ABSOLUTE MONOCYTE (72 h, time 3 day): 594.67 CELLS/uL
ABSOLUTE SEGMENTED NEUTROPHIL (72 h, time 3 day): 1063.67 CELLS/uL
BASOPHIL (72 h, time 3 day): 0%
EOSINOPHIL (72 h, time 3 day): 0.33%
ERYTHROCYTE COUNT (72 h, time 3 day): 5.8 x10E6/uL
HEMATOCRIT (72 h, time 3 day): 34.93%
HEMOGLOBIN (72 h, time 3 day): 13 G/DL
LEUKOCYTE COUNT (72 h, time 3 day): 16.13 x10E3/uL
LYMPHOCYTE (72 h, time 3 day): 89.33%
MEAN CORPUSCULAR HEMOGLOBIN (72 h, time 3 day): 22.43 pg
MEAN CORPUSCULAR HEMOGLOBIN CONCENTRATION (72 h, time 3 day): 37.23 G/DL
MEAN CORPUSCULAR VOLUME (72 h, time 3 day): 60.33 fL
MONOCYTE (72 h, time 3 day): 3.67%
NEUTROPHIL (72 h, time 3 day): 6.67%
NUCLEATED RED BLOOD CELLS (72 h, time 3 day): 0.33 /100WBC
PLATELET COUNT (72 h, time 3 day): 1250 x10E3/uL
ALANINE AMINOTRANSFERASE (72 h, time 3 day): 43.33 u/L
ALBUMIN (72 h, time 3 day): 3.87 G/DL
ALKALINE PHOSPHATASE (72 h, time 3 day): 289 u/L
ASPARTATE AMINOTRANSFERASE (72 h, time 3 day): 78.67 u/L
BLOOD UREA NITROGEN (72 h, time 3 day): 16 mg/dL
CARBON DIOXIDE (72 h, time 3 day): 25.67 mmol/L
CHLORIDE (72 h, time 3 day): 102.67 MEQ/L
CHOLESTEROL (72 h, time 3 day): 76 mg/dL
CREATININE (72 h, time 3 day): 0.16 mg/dL
GLUCOSE (72 h, time 3 day): 149 mg/dL
LACTATE DEHYDROGENASE (72 h, time 3 day): 363 u/L
LIPASE (72 h, time 3 day): 9.33 u/L
PHOSPHORUS (72 h, time 3 day): 13.17 mg/dL
POTASSIUM (72 h, time 3 day): 6.76 MEQ/L
SODIUM (72 h, time 3 day): 148.13 MEQ/L
TOTAL BILIRUBIN (72 h, time 3 day): 0.17 mg/dL
TOTAL PROTEIN (72 h, time 3 day): 6.13 G/DL
URIC ACID (72 h, time 3 day): 1.83 mg/dL
ABSOLUTE BASOPHIL (120 h, time 5 day): 0 CELLS/uL
ABSOLUTE EOSINOPHIL (120 h, time 5 day): 45.67 CELLS/uL
ABSOLUTE LYMPHOCYTE (120 h, time 5 day): 14706.67 CELLS/uL
ABSOLUTE MONOCYTE (120 h, time 5 day): 166.33 CELLS/uL
ABSOLUTE SEGMENTED NEUTROPHIL (120 h, time 5 day): 1714.67 CELLS/uL
BASOPHIL (120 h, time 5 day): 0%
EOSINOPHIL (120 h, time 5 day): 0.33%
ERYTHROCYTE COUNT (120 h, time 5 day): 6.03 x10E6/uL
HEMATOCRIT (120 h, time 5 day): 35.63%
HEMOGLOBIN (120 h, time 5 day): 13.2 G/DL
LEUKOCYTE COUNT (120 h, time 5 day): 16.63 x10E3/uL
LYMPHOCYTE (120 h, time 5 day): 88.33%
MEAN CORPUSCULAR HEMOGLOBIN (120 h, time 5 day): 21.9 pg
MEAN CORPUSCULAR HEMOGLOBIN CONCENTRATION (120 h, time 5 day): 37.03 G/DL
MEAN CORPUSCULAR VOLUME (120 h, time 5 day): 59.07 fL
MONOCYTE (120 h, time 5 day): 1%
NEUTROPHIL (120 h, time 5 day): 10.33%
NUCLEATED RED BLOOD CELLS (120 h, time 5 day): 0 /100WBC
PLATELET COUNT (120 h, time 5 day): 1498.33 x10E3/uL
ALANINE AMINOTRANSFERASE (120 h, time 5 day): 48.33 u/L
ALBUMIN (120 h, time 5 day): 3.97 G/DL
ALKALINE PHOSPHATASE (120 h, time 5 day): 321.67 u/L
ASPARTATE AMINOTRANSFERASE (120 h, time 5 day): 89.67 u/L
BLOOD UREA NITROGEN (120 h, time 5 day): 14 mg/dL
CARBON DIOXIDE (120 h, time 5 day): 27.67 mmol/L
CHLORIDE (120 h, time 5 day): 103.33 MEQ/L
CHOLESTEROL (120 h, time 5 day): 71 mg/dL
CREATININE (120 h, time 5 day): 0.15 mg/dL
GLUCOSE (120 h, time 5 day): 166 mg/dL
LACTATE DEHYDROGENASE (120 h, time 5 day): 145.33 u/L
LIPASE (120 h, time 5 day): 9 u/L
PHOSPHORUS (120 h, time 5 day): 12.6 mg/dL
POTASSIUM (120 h, time 5 day): 6.15 MEQ/L
SODIUM (120 h, time 5 day): 148.6 MEQ/L
TOTAL BILIRUBIN (120 h, time 5 day): 0.17 mg/dL
TOTAL PROTEIN (120 h, time 5 day): 6.1 G/DL
URIC ACID (120 h, time 5 day): 1.87 mg/dL
ABSOLUTE BASOPHIL (time 14 day): 0 CELLS/uL
ABSOLUTE EOSINOPHIL (time 14 day): 155 CELLS/uL
ABSOLUTE LYMPHOCYTE (time 14 day): 14503.4 CELLS/uL
ABSOLUTE MONOCYTE (time 14 day): 573 CELLS/uL
ABSOLUTE SEGMENTED NEUTROPHIL (time 14 day): 2768.6 CELLS/uL
BASOPHIL (time 14 day): 0%
EOSINOPHIL (time 14 day): 0.8%
ERYTHROCYTE COUNT (time 14 day): 6.23 x10E6/uL
HEMATOCRIT (time 14 day): 37.14%
HEMOGLOBIN (time 14 day): 13.54 G/DL
LEUKOCYTE COUNT (time 14 day): 18 x10E3/uL
LYMPHOCYTE (time 14 day): 80.8%
MEAN CORPUSCULAR HEMOGLOBIN (time 14 day): 21.72 pg
MEAN CORPUSCULAR HEMOGLOBIN CONCENTRATION (time 14 day): 36.46 G/DL
MEAN CORPUSCULAR VOLUME (time 14 day): 59.54 fL
MONOCYTE (time 14 day): 3.2%
NEUTROPHIL (time 14 day): 15.2%
NUCLEATED RED BLOOD CELLS (time 14 day): 0 /100WBC
PLATELET COUNT (time 14 day): 1175 x10E3/uL
ALANINE AMINOTRANSFERASE (time 14 day): 43.6 u/L
ALBUMIN (time 14 day): 4.1 G/DL
ALKALINE PHOSPHATASE (time 14 day): 276.2 u/L
ASPARTATE AMINOTRANSFERASE (time 14 day): 80 u/L
BLOOD UREA NITROGEN (time 14 day): 19.6 mg/dL
CARBON DIOXIDE (time 14 day): 29.4 mmol/L
CHLORIDE (time 14 day): 100.6 MEQ/L
CHOLESTEROL (time 14 day): 69.8 mg/dL
CREATININE (time 14 day): 0.23 mg/dL
GLUCOSE (time 14 day): 173.8 mg/dL
LACTATE DEHYDROGENASE (time 14 day): 166.4 u/L
LIPASE (time 14 day): 8.6 u/L
PHOSPHORUS (time 14 day): 13.24 mg/dL
POTASSIUM (time 14 day): 7.17 MEQ/L
SODIUM (time 14 day): 144.9 MEQ/L
TOTAL BILIRUBIN (time 14 day): 0.18 mg/dL
TOTAL PROTEIN (time 14 day): 6.42 G/DL
URIC ACID (time 14 day): 2.54 mg/dL
